Reference: ChEMBL document CHEMBL5104202, “Structure-Uptake Relationship Studies of Oxazolidinones in Gram-Negative ESKAPE Pathogens” (J Med Chem, 2022)

Legend:
Format in all cases: functional, organism-based
Acinetobacter baumannii [1] = assay: Antibacterial activity against wild type Acinetobacter baumannii assessed as inhibition of bacterial growth
Escherichia coli [2] = assay: Antibacterial activity against efflux pump lacking Escherichia coli assessed as inhibition of bacterial growth
Acinetobacter baumannii [3] = assay: Antibacterial activity against efflux pump lacking/recombinant OM pore producing Acinetobacter baumannii assessed as inhibition of bacterial growth
Pseudomonas aeruginosa [4] = assay: Antibacterial activity against efflux pump lacking/recombinant OM pore producing Pseudomonas aeruginosa assessed as inhibition of bacterial growth
Escherichia coli [5] = assay: Antibacterial activity against wild type Escherichia coli assessed as inhibition of bacterial growth
Acinetobacter baumannii [6] = assay: Antibacterial activity against recombinant OM pore producing Acinetobacter baumannii assessed as inhibition of bacterial growth
Pseudomonas aeruginosa [7] = assay: Antibacterial activity against recombinant OM pore producing Pseudomonas aeruginosa assessed as inhibition of bacterial growth
Pseudomonas aeruginosa [8] = assay: Antibacterial activity against wild type Pseudomonas aeruginosa assessed as inhibition of bacterial growth
Pseudomonas aeruginosa [9] = assay: Antibacterial activity against efflux pump lacking Pseudomonas aeruginosa assessed as inhibition of bacterial growth
Escherichia coli [10] = assay: Antibacterial activity against efflux pump lacking/recombinant OM pore producing Escherichia coli assessed as inhibition of bacterial growth
Escherichia coli [11] = assay: Antibacterial activity against recombinant OM pore producing Escherichia coli assessed as inhibition of bacterial growth
Acinetobacter baumannii [12] = assay: Antibacterial activity against efflux pump lacking Acinetobacter baumannii assessed as inhibition of bacterial growth

Work on CC(C(=O)NCC#Cc1ccc(N2C[C@H](CO)OC2=O)cc1F)N1CCNCC1 (some centres not stated) yielded an IC50 (Acinetobacter baumannii [1]) of over 100 µM, an IC50 (Escherichia coli [2]) of over 100 µM and an IC50 (Acinetobacter baumannii [3]) of over 100 µM. For the same molecule, the IC50 (Pseudomonas aeruginosa [4]) was over 100 µM, the IC50 (Escherichia coli [5]) was over 100 µM and the IC50 (Acinetobacter baumannii [6]) was over 100 µM. The IC50 (Pseudomonas aeruginosa [7]) was over 100 µM, the IC50 (Pseudomonas aeruginosa [8]) was over 100 µM and the IC50 (Pseudomonas aeruginosa [9]) was over 100 µM. It also gave an IC50 (Escherichia coli [10]) of over 100 µM, an IC50 (Escherichia coli [11]) of over 100 µM and an IC50 (Acinetobacter baumannii [12]) of over 100 µM.

O=C(O)c1cncc(-c2ccc(N3C[C@H](CO)OC3=O)cc2F)c1 was tested, and the IC50 (Acinetobacter baumannii [1]) was over 100 µM, the IC50 (Escherichia coli [2]) was over 100 µM and the IC50 (Acinetobacter baumannii [3]) was over 100 µM. The IC50 (Pseudomonas aeruginosa [4]) was over 100 µM, the IC50 (Escherichia coli [5]) was over 100 µM and the IC50 (Acinetobacter baumannii [6]) was over 100 µM. The IC50 (Pseudomonas aeruginosa [7]) was over 100 µM, the IC50 (Pseudomonas aeruginosa [8]) was over 100 µM and the IC50 (Pseudomonas aeruginosa [9]) was over 100 µM. It also gave an IC50 (Escherichia coli [10]) of 42.2 µM, an IC50 (Escherichia coli [11]) of over 100 µM and an IC50 (Acinetobacter baumannii [12]) of over 100 µM.

Molecule CC(C)[n+]1ccc(-c2ccc(N3C[C@H](CO)OC3=O)cc2F)cc1 has an IC50 (Acinetobacter baumannii [1]) of 89.5 µM, an IC50 (Escherichia coli [2]) of 16.9 µM and an IC50 (Acinetobacter baumannii [3]) of 22.3 µM. It also gave an IC50 (Pseudomonas aeruginosa [4]) of 36.6 µM, an IC50 (Escherichia coli [5]) of 81.6 µM and an IC50 (Acinetobacter baumannii [6]) of 22 µM. It also gave an IC50 (Pseudomonas aeruginosa [7]) of over 100 µM, an IC50 (Pseudomonas aeruginosa [8]) of over 100 µM and an IC50 (Pseudomonas aeruginosa [9]) of 35.1 µM. For the same molecule, the IC50 (Escherichia coli [10]) was 16.6 µM, the IC50 (Escherichia coli [11]) was 42.8 µM and the IC50 (Acinetobacter baumannii [12]) was 34.5 µM.

For C[n+]1cccc(-c2ccc(N3C[C@H](CO)OC3=O)cc2F)c1, the IC50 (Acinetobacter baumannii [1]) was over 100 µM, the IC50 (Escherichia coli [2]) was 70.6 µM and the IC50 (Acinetobacter baumannii [3]) was over 100 µM. For the same molecule, the IC50 (Pseudomonas aeruginosa [4]) was over 100 µM, the IC50 (Escherichia coli [5]) was over 100 µM and the IC50 (Acinetobacter baumannii [6]) was over 100 µM. The IC50 (Pseudomonas aeruginosa [7]) was over 100 µM, the IC50 (Pseudomonas aeruginosa [8]) was over 100 µM and the IC50 (Pseudomonas aeruginosa [9]) was over 100 µM. The IC50 (Escherichia coli [10]) was 88.8 µM, the IC50 (Escherichia coli [11]) was over 100 µM and the IC50 (Acinetobacter baumannii [12]) was over 100 µM.

In the case of O=C(O)CNCC#Cc1ccc(N2C[C@H](CO)OC2=O)cc1F, the IC50 (Acinetobacter baumannii [1]) is reported as over 100 µM, the IC50 (Escherichia coli [2]) is reported as over 100 µM and the IC50 (Acinetobacter baumannii [3]) is reported as over 100 µM. The IC50 (Pseudomonas aeruginosa [4]) was over 100 µM, the IC50 (Escherichia coli [5]) was over 100 µM and the IC50 (Acinetobacter baumannii [6]) was over 100 µM. It also gave an IC50 (Pseudomonas aeruginosa [7]) of over 100 µM, an IC50 (Pseudomonas aeruginosa [8]) of over 100 µM and an IC50 (Pseudomonas aeruginosa [9]) of over 100 µM. The IC50 (Escherichia coli [10]) was over 100 µM, the IC50 (Escherichia coli [11]) was over 100 µM and the IC50 (Acinetobacter baumannii [12]) was over 100 µM.

Molecule O=C1O[C@@H](CO)CN1c1ccc(-c2ccnc(N3CCCC3)c2)c(F)c1 has an IC50 (Acinetobacter baumannii [1]) of 71.9 µM, an IC50 (Escherichia coli [2]) of 15.4 µM and an IC50 (Acinetobacter baumannii [3]) of 72.4 µM. The IC50 (Pseudomonas aeruginosa [4]) was over 100 µM, the IC50 (Escherichia coli [5]) was over 100 µM and the IC50 (Acinetobacter baumannii [6]) was 71.9 µM. For the same molecule, the IC50 (Pseudomonas aeruginosa [7]) was over 100 µM, the IC50 (Pseudomonas aeruginosa [8]) was over 100 µM and the IC50 (Pseudomonas aeruginosa [9]) was over 100 µM. It also gave an IC50 (Escherichia coli [10]) of 1.5 µM, an IC50 (Escherichia coli [11]) of 4 µM and an IC50 (Acinetobacter baumannii [12]) of 72.4 µM.

Molecule O=C1O[C@@H](CO)CN1c1ccc(-c2ccccc2OC(F)(F)F)c(F)c1 has an IC50 (Acinetobacter baumannii [1]) of over 100 µM, an IC50 (Escherichia coli [2]) of 9.3 µM and an IC50 (Acinetobacter baumannii [3]) of 24.8 µM. The IC50 (Pseudomonas aeruginosa [4]) was 29.9 µM, the IC50 (Escherichia coli [5]) was 42.6 µM and the IC50 (Acinetobacter baumannii [6]) was 59.1 µM. It also gave an IC50 (Pseudomonas aeruginosa [7]) of over 100 µM, an IC50 (Pseudomonas aeruginosa [8]) of over 100 µM and an IC50 (Pseudomonas aeruginosa [9]) of 75.6 µM. It also gave an IC50 (Escherichia coli [10]) of 21.9 µM, an IC50 (Escherichia coli [11]) of 46.3 µM and an IC50 (Acinetobacter baumannii [12]) of 33.2 µM.

Work on O=C1O[C@@H](CO)CN1c1ccc(-c2cccc3cc[nH]c23)c(F)c1 yielded an IC50 (Acinetobacter baumannii [1]) of over 100 µM, an IC50 (Escherichia coli [2]) of 21.6 µM and an IC50 (Acinetobacter baumannii [3]) of 62.1 µM. The IC50 (Pseudomonas aeruginosa [4]) was over 100 µM, the IC50 (Escherichia coli [5]) was 77 µM and the IC50 (Acinetobacter baumannii [6]) was over 100 µM. It also gave an IC50 (Pseudomonas aeruginosa [7]) of over 100 µM, an IC50 (Pseudomonas aeruginosa [8]) of over 100 µM and an IC50 (Pseudomonas aeruginosa [9]) of over 100 µM. The IC50 (Escherichia coli [10]) was 7.2 µM, the IC50 (Escherichia coli [11]) was 19.5 µM and the IC50 (Acinetobacter baumannii [12]) was 64.4 µM.

CC(C)(C)OC(=O)N(CC#Cc1ccc(N2C[C@H](CO)OC2=O)cc1F)CC(=O)O gave an IC50 (Acinetobacter baumannii [1]) of over 100 µM, an IC50 (Escherichia coli [2]) of over 100 µM and an IC50 (Acinetobacter baumannii [3]) of over 100 µM. The IC50 (Pseudomonas aeruginosa [4]) was over 100 µM, the IC50 (Escherichia coli [5]) was over 100 µM and the IC50 (Acinetobacter baumannii [6]) was over 100 µM. It also gave an IC50 (Pseudomonas aeruginosa [7]) of over 100 µM, an IC50 (Pseudomonas aeruginosa [8]) of over 100 µM and an IC50 (Pseudomonas aeruginosa [9]) of over 100 µM. It also gave an IC50 (Escherichia coli [10]) of over 100 µM, an IC50 (Escherichia coli [11]) of over 100 µM and an IC50 (Acinetobacter baumannii [12]) of over 100 µM.

For NC(CO)CC#Cc1ccc(N2C[C@H](CO)OC2=O)cc1F (some centres not stated), the IC50 (Acinetobacter baumannii [1]) was over 100 µM, the IC50 (Escherichia coli [2]) was over 100 µM and the IC50 (Acinetobacter baumannii [3]) was over 100 µM. For the same molecule, the IC50 (Pseudomonas aeruginosa [4]) was over 100 µM, the IC50 (Escherichia coli [5]) was over 100 µM and the IC50 (Acinetobacter baumannii [6]) was over 100 µM. The IC50 (Pseudomonas aeruginosa [7]) was over 100 µM, the IC50 (Pseudomonas aeruginosa [8]) was over 100 µM and the IC50 (Pseudomonas aeruginosa [9]) was over 100 µM. It also gave an IC50 (Escherichia coli [10]) of over 100 µM, an IC50 (Escherichia coli [11]) of over 100 µM and an IC50 (Acinetobacter baumannii [12]) of over 100 µM.

In the case of C[n+]1ccc2ccc(-c3ccc(N4C[C@H](CO)OC4=O)cc3F)cc2c1, the IC50 (Acinetobacter baumannii [1]) is reported as over 100 µM, the IC50 (Escherichia coli [2]) is reported as 5.6 µM and the IC50 (Acinetobacter baumannii [3]) is reported as 9.4 µM. The IC50 (Pseudomonas aeruginosa [4]) was over 100 µM, the IC50 (Escherichia coli [5]) was over 100 µM and the IC50 (Acinetobacter baumannii [6]) was 27.4 µM. It also gave an IC50 (Pseudomonas aeruginosa [7]) of over 100 µM, an IC50 (Pseudomonas aeruginosa [8]) of over 100 µM and an IC50 (Pseudomonas aeruginosa [9]) of over 100 µM. It also gave an IC50 (Escherichia coli [10]) of 9.6 µM, an IC50 (Escherichia coli [11]) of 21 µM and an IC50 (Acinetobacter baumannii [12]) of 48.6 µM.
